Data reported in PubChem BioAssay AID248 (DTP/NCI, 2004).
Several values for one entry are separate records, joined by “and”; a condition that tells them apart may be missing. Identical values can stand only once. Toxic doses and inconclusive results are not listed.

System: L1210 leukemia ip in BDF1 mice, survival T/C
Test: NCI In Vivo Anticancer Drug Screen. Data for tumor model L1210 Leukemia (intraperitoneal) in B6D2F1 (BDF1) mice
Conditions: endpoint: mean survival time, higher = longer survival
Method in brief: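 Survival endpoint. Drug-treated group vs vehicle group, expressed as T divided by C. Tumor passaged by transplantation.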

[1] = dose: 100.0 mg/kg/injection, schedule: Q01DX009 (ip), vehicle: Klucel (hydroxypropylcellulose) (HPC)
[2] = dose: 200.0 mg/kg/injection, schedule: Q01DX009 (ip), vehicle: Klucel (hydroxypropylcellulose) (HPC)
[3] = dose: 400.0 mg/kg/injection, schedule: Q01DX009 (ip), vehicle: Klucel (hydroxypropylcellulose) (HPC)
[4] = dose: 50.0 mg/kg/injection, schedule: Q01DX009 (ip), vehicle: saline with Tween-80
[5] = dose: 100.0 mg/kg/injection, schedule: Q01DX009 (ip), vehicle: saline with Tween-80
[6] = dose: 100.0 mg/kg/injection, schedule: Q04DX003 (ip), vehicle: Klucel (hydroxypropylcellulose) (HPC)
[7] = dose: 200.0 mg/kg/injection, schedule: Q04DX003 (ip), vehicle: Klucel (hydroxypropylcellulose) (HPC)
[8] = dose: 400.0 mg/kg/injection, schedule: Q04DX003 (ip), vehicle: Klucel (hydroxypropylcellulose) (HPC)
[9] = dose: 200.0 mg/kg/injection, schedule: Q01DX009 (ip), vehicle: saline with Tween-80
[10] = dose: 100.0 mg/kg/injection, schedule: Q04DX003 (ip), vehicle: saline with Tween-80
[11] = dose: 200.0 mg/kg/injection, schedule: Q04DX003 (ip), vehicle: saline with Tween-80
[12] = dose: 100.0 mg/kg/injection, schedule: Q04DX003 (ip), vehicle: saline
[13] = dose: 50.0 mg/kg/injection, schedule: Q04DX003 (ip), vehicle: saline

O=C1c2ccccc2C(=O)c2c(O)c3c(c(O)c21)CC=CC3
T/C (dose: 0.25 mg/kg/injection, schedule: Q04DX003 (ip), vehicle: saline with Tween-80): 94 % of control
T/C (dose: 0.5 mg/kg/injection, schedule: Q04DX003 (ip), vehicle: saline with Tween-80): 104 % of control
T/C (dose: 1.0 mg/kg/injection, schedule: Q04DX003 (ip), vehicle: saline with Tween-80): 100 % of control
T/C (dose: 2.0 mg/kg/injection, schedule: Q04DX003 (ip), vehicle: saline with Tween-80): 104 % of control
T/C (dose: 4.0 mg/kg/injection, schedule: Q04DX003 (ip), vehicle: saline with Tween-80): 102 % of control
T/C (dose: 6.0 mg/kg/injection, schedule: Q04DX003 (ip), vehicle: saline with Tween-80): 102 % of control
T/C (dose: 8.0 mg/kg/injection, schedule: Q04DX003 (ip), vehicle: saline with Tween-80): 93 % of control
T/C (dose: 12.0 mg/kg/injection, schedule: Q04DX003 (ip), vehicle: saline with Tween-80): 103 % of control
T/C (dose: 16.0 mg/kg/injection, schedule: Q04DX003 (ip), vehicle: saline with Tween-80): 93 % of control
T/C (dose: 24.0 mg/kg/injection, schedule: Q04DX003 (ip), vehicle: saline with Tween-80): 102 % of control
T/C (dose: 32.0 mg/kg/injection, schedule: Q04DX003 (ip), vehicle: saline with Tween-80): 100 % of control
T/C (dose: 48.0 mg/kg/injection, schedule: Q04DX003 (ip), vehicle: saline with Tween-80): 103 % of control
T/C (dose: 64.0 mg/kg/injection, schedule: Q04DX003 (ip), vehicle: saline with Tween-80): 96 % of control
T/C (dose: 128.0 mg/kg/injection, schedule: Q04DX003 (ip), vehicle: saline with Tween-80): 105 % of control

O=C(OCC1OCOC(COC(=O)c2ccccc2)C(OC(=O)c2ccccc2)C1OC(=O)c1ccccc1)c1ccccc1 (stereo unspecified)
T/C (dose: 50.0 mg/kg/injection, schedule: Q04DX002 (ip), vehicle: saline with Tween-80): 88 % of control

O=[N+]([O-])c1ccc(O)c(/C=N/Nc2nnc(N/N=C/c3cc([N+](=O)[O-])ccc3O)c3ccccc23)c1
T/C (dose: 50.0 mg/kg/injection, schedule: Q01DX001 (ip), vehicle: carboxymethylcellulose (CMC)): 95 % of control
T/C (dose: 100.0 mg/kg/injection, schedule: Q01DX001 (ip), vehicle: carboxymethylcellulose (CMC)): 93 % of control
T/C (dose: 200.0 mg/kg/injection, schedule: Q01DX001 (ip), vehicle: carboxymethylcellulose (CMC)): 95 % of control
T/C (dose: 400.0 mg/kg/injection, schedule: Q01DX001 (ip), vehicle: carboxymethylcellulose (CMC)): 93 % of control

N#CCCC1C(C#N)C2CC1C1C3CCC(C3)C21 (stereo unspecified)
T/C (dose: 100.0 mg/kg/injection, schedule: Q01DX009 (ip), vehicle: other): 100 % of control
T/C (dose: 200.0 mg/kg/injection, schedule: Q01DX009 (ip), vehicle: other): 101 % of control
T/C (dose: 400.0 mg/kg/injection, schedule: Q01DX009 (ip), vehicle: other): 90 % of control

CSc1ccc(NC(=O)C(Br)C(Br)c2ccccc2)cc1 (stereo unspecified)
T/C [1]: 103 % of control
T/C [2]: 105 % of control
T/C [3]: 102 % of control

Cc1nc2c(O)cccn2c(=O)c1Cl
T/C (dose: 25.0 mg/kg/injection, schedule: Q01DX009 (ip), vehicle: saline with Tween-80): 92 % of control
T/C [4]: 94 % of control
T/C [5]: 97 % of control

CN(C)OC(=O)Nc1cccc([N+](=O)[O-])c1
T/C (dose: 100.0 mg/kg/injection, schedule: Q04DX002 (ip), vehicle: other): 87 % of control
T/C (dose: 200.0 mg/kg/injection, schedule: Q04DX002 (ip), vehicle: other): 102 % of control
T/C (dose: 400.0 mg/kg/injection, schedule: Q04DX002 (ip), vehicle: other): 117 % of control

CC(C)CCOC(=O)C(O)c1ccccc1 (stereo unspecified)
T/C [1]: 98 % of control
T/C [6]: 100 % of control
T/C [2]: 92 % of control
T/C [7]: 88 % of control
T/C [3]: 95 % of control
T/C [8]: 91 % of control

O=[N+]([O-])c1cccc(-c2ccccc2)c1Br
T/C [5]: 94 % of control
T/C [6]: 93 % of control
T/C [9]: 93 % of control
T/C [7]: 96 % of control
T/C (dose: 400.0 mg/kg/injection, schedule: Q01DX009 (ip), vehicle: saline with Tween-80): 94 % of control
T/C [8]: 94 % of control

CCCN([Si](C)(C)C)[Si](C)(C)C
T/C [4]: 100 % of control
T/C [5]: 94 % of control
T/C [10]: 99 % of control
T/C [9]: 100 % of control
T/C [11]: 106 % of control

Nc1ccc2cc(S(=O)(=O)O)ccc2c1
T/C [12]: 96 % of control
T/C (dose: 200.0 mg/kg/injection, schedule: Q04DX003 (ip), vehicle: saline): 94 % of control
T/C (dose: 400.0 mg/kg/injection, schedule: Q04DX003 (ip), vehicle: saline): 94 % of control

CC1(C)N=C(N)N=C(N)N1c1ccc(OCC(=O)Nc2ccc(S(=O)(=O)F)cc2)cc1
T/C (dose: 0.8 mg/kg/injection, schedule: Q01DX009 (ip), vehicle: saline): 101 % of control
T/C (dose: 4.0 mg/kg/injection, schedule: Q01DX009 (ip), vehicle: saline): 103 % of control
T/C (dose: 20.0 mg/kg/injection, schedule: Q01DX009 (ip), vehicle: saline): 112 % of control

CCC1OCCN1C(C)C (stereo unspecified)
T/C (dose: 26.0 mg/kg/injection, schedule: Q01DX Z (ip), vehicle: other): 105 % of control
T/C (dose: 90.0 mg/kg/injection, schedule: Q01DX Z (ip), vehicle: other): 111 % of control
T/C (dose: 100.0 mg/kg/injection, schedule: Q01DX001 (ip), vehicle: saline): 102 % of control and 104 % of control
T/C (dose: 135.0 mg/kg/injection, schedule: Q01DX Z (ip), vehicle: other): 95 % of control
T/C (dose: 200.0 mg/kg/injection, schedule: Q01DX001 (ip), vehicle: saline): 96 % of control and 104 % of control
T/C (dose: 400.0 mg/kg/injection, schedule: Q01DX001 (ip), vehicle: saline): 92 % of control and 93 % of control

O=C1CCCCC1C(O)(C(=O)c1ccccc1)c1ccccc1 (stereo unspecified)
T/C (dose: 100.0 mg/kg/injection, schedule: Q04DX002 (ip), vehicle: Klucel (hydroxypropylcellulose) (HPC)): 100 % of control
T/C (dose: 200.0 mg/kg/injection, schedule: Q04DX002 (ip), vehicle: Klucel (hydroxypropylcellulose) (HPC)): 96 % of control
T/C (dose: 400.0 mg/kg/injection, schedule: Q04DX002 (ip), vehicle: Klucel (hydroxypropylcellulose) (HPC)): 100 % of control

CC1=CC(C)(C)NC(=S)N1c1ccccc1
T/C [6]: 103 % of control
T/C [2]: 86 % of control
T/C [7]: 103 % of control
T/C [3]: 87 % of control
T/C [8]: 101 % of control

CCC(O)c1cnc(OCc2ccccc2)nc1OCc1ccccc1 (stereo unspecified)
T/C [1]: 94 % of control
T/C [6]: 96 % of control
T/C [2]: 95 % of control
T/C [7]: 95 % of control
T/C [3]: 90 % of control
T/C [8]: 100 % of control

O=C(OC1OCC(OCc2ccccc2)C(OCc2ccccc2)C1OCc1ccccc1)c1ccccc1 (stereo unspecified)
T/C [10]: 94 % of control
T/C [11]: 94 % of control
T/C (dose: 400.0 mg/kg/injection, schedule: Q04DX003 (ip), vehicle: saline with Tween-80): 91 % of control

COCCOCCN1CCN(CCCN2c3ccccc3Sc3ccc(C(F)(F)F)cc32)CC1
T/C (dose: 4.37 mg/kg/injection, schedule: Q04DX003 (ip), vehicle: saline): 115 % of control
T/C (dose: 6.25 mg/kg/injection, schedule: Q04DX003 (ip), vehicle: saline): 107 % of control
T/C (dose: 8.75 mg/kg/injection, schedule: Q04DX003 (ip), vehicle: saline): 121 % of control
T/C (dose: 12.5 mg/kg/injection, schedule: Q04DX003 (ip), vehicle: saline): 110 % of control
T/C (dose: 17.5 mg/kg/injection, schedule: Q04DX003 (ip), vehicle: saline): 86 % of control
T/C [13]: 151 % of control

O=C1C=CC(=O)N1c1ccc(N2C(=O)C=CC2=O)cc1
T/C (dose: 25.0 mg/kg/injection, schedule: Q04DX003 (ip), vehicle: saline): 110 % of control
T/C [13]: 107 % of control
T/C [12]: 100 % of control
